Experimental data reported in US10501479B2, “Benzenesulfonyl-asymmetric ureas and medical uses thereof” (HELSINN HEALTHCARE SA, priority 2016, dated 2019).
Several values for one entry are separate records, joined by “and”; a condition that tells them apart may be missing. Identical values can stand only once. Like-named read-outs stand apart in the source and are kept apart here.

What was measured:
[1] = Metabolic stability in rat liver microsomes; format: in vitro ADME
Experimental: (§1) Metabolic Stability Study
(§2) The metabolic stability of compounds in human, dog, rat and mouse liver microsomes was performed according the experimental conditions reported below:
(§3) • a) Prepare the following 5 stock solutions: • 1. Test compound stock solutions: dilute 10 mM solution of dextromethorphan (Dtr) in DMSO, 10 mM solution of diphenhydramine (DPA) in DMSO, 10 mM solution of omeprazole (Ome) in DMSO, 10 mM solution of verapamil (Ver) in DMSO, and 10 mM of an inverse agonist compound in DMSO to 0.25 mM solution each with acetonitrile/water (70/30). • 2. Buffer: 100 mM potassium phosphate Buffer (PBS) at pH 7.4 • 3. Liver microsomes (20 mg/ml): Thaw in 37° C. water bath quickly • 4. 2000 μL: of NADPH regenerating system (1.3 mM). Place this system on ice before use:
(§4) • 5. […] The test compound concentration in the wells, measured by LC-MS/MS, represents the concentration at time=0. • f) To determine the test compound concentration when t≠0, pre-incubate the NADPH regenerating system and the incubation plate containing the remaining 320 μL of incubation mixture (microsomes protein and test compound) for 5 minutes at 37° C. • g) Start the incubation reaction by adding 80 μL NADPH regenerating system to each well containing the remaining 320 μL incubation mixture. • h) After 10 min., 30 min., and 90 min. of incubation at 37° C., transfer 100 μL of the incubation mixture (microsomes protein, test compound, and NADPH) into the wells of a stop plate pre-filled with 300 μL of the cold quench solution. Shake well. • i) Centrifuge the stop plate at 5000×g for 10 minutes. Collect and dilute the supernatant 3 times with distilled water. Sample and analyze the test compound concentration for all the wells by LC-MS/MS. Animal PK Studies via i.v. (intravenous), p.o. (orally) and s.c. (subcutaneous) administrations

[2] = Plasma protein binding (PPB), human; format: in vitro ADME; settings: read-out: PPB (H)
[3] = target: T1, recombinant human ghrelin receptor (HEK293/GRLN) (Homo sapiens, UniProt Q92847); assay: Ghrelin inverse agonist potency (EC50) with IP-1 (IP-One HTRF) assay; format: cell-based; settings: IP-1 assay
T1 construct: expressed in transfected cells
Summary of the method: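 IP-1 accumulation was measured by HTRF (IP1-d2/Tb-cryptate, 620/665 nm read after 1 hour at room temperature) following 1 hour of compound treatment at 37° C. Cells were HEK293 stably expressing human ghrelin receptor, plated a day earlier on Matrigel. Inverse agonist potency was reported as EC50.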

[4] = target: T2, GHSR-1a (HEK293/GHSR1a cell line) (Homo sapiens, UniProt Q92847); assay: Ghrelin antagonist potency (IC50) with calcium FLIPR assay, ghrelin 10 nM; format: cell-based
T2 construct: expressed in transfected cells; host or cells: HEK293/GHSR1a cell line
Summary of the method: (§5)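 Fluorescence read-out of intracellular calcium over 2 min. Agonist EC50 came from compound added alone at t=20 sec. Antagonist IC50 came from the reduction of the response to 10 nM ghrelin co-added with compound at t=20 sec. Both were fitted from dose-response data.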

[5] = Animal PK study in mouse via i.v., p.o. and s.c. administration; format: in vivo; settings: for Vd / clearance / half-life: plasma; for clearance: read-out: PK CL i.v.
Summary of the method: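 Plasma drug levels were measured by LC-MS/MS after acetonitrile precipitation, with blood drawn up to 24 h post-dose (from 0.083 h i.v./s.c., 0.25 h oral) in mice or rats. Animals received one dose by gavage in DMSO/methylcellulose, or by tail-vein or subcutaneous injection in DMSO/HP-β-cyclodextrin.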

[6] = Plasma protein binding (PPB), mouse; format: in vitro ADME
[7] = Metabolic stability in mouse liver microsomes; format: in vitro ADME
Summary of the method: (§6)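 Microsomes + compound, 100 mM K phosphate pH 7.4, 37 °C; 5 min preincubation, NADPH regenerating system added to start. Aliquots at 0/10/30/90 min into cold quench, spun 5000×g, supernatant diluted, LC-MS/MS.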

[8] = Metabolic stability in human liver microsomes; format: in vitro ADME
Summary of the method: as §6

[9] = target: T2, GHSR-1a (HEK293/GHSR1a cell line); assay: Ghrelin agonist potency (EC50) with calcium FLIPR assay; format: cell-based; settings: HEK293/GHSR1a, read-out: Activity EC50/EMax: EC50 (ghrelin agonist potency)
Summary of the method: as §5

[10] = Plasma protein binding (PPB), mouse; format: in vitro ADME; remark: listed apart in the source
[11] = Plasma protein binding (PPB), human; format: in vitro ADME; settings: read-out: PPB (H) (converted)
[12] = Metabolic stability in dog liver microsomes; format: in vitro ADME
Experimental: as §1, §2, §3, §4

[13] = Animal PK study in rat via i.v., p.o. and s.c. administration; format: in vivo; settings: rat, i.p.
[14] = inverse agonist potency, read-out: EC50 (Activity)
[15] = ghrelin antagonist potency, read-out: IC50 (Activity)
[16] = HEK293/GRLN, read-out: Activity EC50 (ghrelin inverse agonist potency)
[17] = HEK293/GHSR1a, ghrelin 10 nM, read-out: Activity IC50 (ghrelin antagonist potency)
[18] = iv, 5 mg/kg, i.v., read-out: PK t1/2 i.v.
[19] = po, 10 mg/kg, p.o., read-out: PK t1/2 p.o.

T1 sequence (Q92847 whole entry): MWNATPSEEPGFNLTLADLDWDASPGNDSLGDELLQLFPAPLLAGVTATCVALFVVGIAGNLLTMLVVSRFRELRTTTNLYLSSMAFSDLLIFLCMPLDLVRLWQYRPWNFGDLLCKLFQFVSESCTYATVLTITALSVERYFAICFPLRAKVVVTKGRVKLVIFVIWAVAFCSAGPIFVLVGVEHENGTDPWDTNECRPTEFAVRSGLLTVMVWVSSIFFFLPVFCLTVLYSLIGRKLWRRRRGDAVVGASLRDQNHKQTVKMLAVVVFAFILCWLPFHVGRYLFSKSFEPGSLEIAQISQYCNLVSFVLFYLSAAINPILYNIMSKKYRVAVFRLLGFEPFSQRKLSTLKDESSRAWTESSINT
T2 sequence (Q92847 whole entry): as above

SMILES | fraction unbound [2] | EC50 [3, 14] | IC50 [4, 15] | PK F [5] | fraction unbound [6] | Metabolic Stability Study M = mouse [7] | Metabolic Stability Study H = human [8] | EC50 [9] | fraction unbound [10] | EC50 [3, 16] | IC50 [4, 17] | PK CL p.o. ([5]; p.o.) | PK Vd p.o. ([5]; p.o.) | Vd ([5]; iv, 5 mg/kg) | clearance ([5]; iv, 5 mg/kg, i.v.) | half-life [5, 18] | half-life [5, 19] | fraction unbound [11] | other results
C[C@H](NC(=O)Nc1ccc(S(=O)(=O)Nc2ccc(CC(C)(C)N)cc2)cc1)c1ccc(-c2cnccn2)c(Cl)c1Cl [H0906, (S)-N-(4-(2-amino-2-methylpropyl)phenyl)-4-(3-(1-(2,3-dichloro-4-(pyrazin-2-yl)phenyl)ethyl)ureido) benzenesulfonamide] | 0.0016 | 6.8 nM | 18.9 nM | 0.1% | 0.0004 | 24.4 µL/min/mg | 19.9 µL/min/mg |  |  |  |  |  |  |  |  |  |  |  | Metabolic Stability Study R = rat [1]: 13.6 µL/min/mg; PK CLiv ([5]; i.v.): 0.18 L/h/kg; PK Vdiv ([5]; i.v.): 0.27 L/kg; PK t1/2iv ([5]; i.v.): 61.8 min; PK CLpo ([5]; p.o.): 239.47 L/h/kg; PK Vdpo ([5]; p.o.): 479.77 L/kg; PK t1/2po ([5]; p.o.): 1.39 h
COc1ccc([C@H](C)NC(=O)Nc2ccc(S(=O)(=O)Nc3ccc4c(c3)CCN(C)C4)cc2)c(Cl)c1Cl [H1017] | 0.001 | 9.8 nM | 72 nM |  | 0.0003 | 30.5 µL/min/mg | 11.5 µL/min/mg |  |  |  |  |  |  |  |  |  |  |  | 
Cl.O=C(NCc1cccc(Cl)c1Cl)Nc1ccc(S(=O)(=O)Cc2ccc3c(c2)CNC3)cc1 [H1057, 1-(2,3-dichlorobenzyl)-3-(4-((isoindolin-5-ylmethyl)sulfonyl)phenyl)urea] | 0.005 | 6.9 nM | 19.3 nM | 1.6% | 0.005 | 10.8 µL/min/mg | 12.6 µL/min/mg |  |  |  |  |  |  |  |  |  |  |  | PK CLiv ([5]; i.v.): 1.57 L/h/kg; PK Vdiv ([5]; i.v.): 2.18 L/kg; PK t1/2iv ([5]; i.v.): 57.6 min; PK CLpo ([5]; p.o.): 82.24 L/h/kg; PK Vdpo ([5]; p.o.): 368.9 L/kg; PK t1/2po ([5]; p.o.): 3.11 h
CC(NC(=O)Nc1ccc(S(=O)(=O)Cc2ccc3c(c2)CNC3)cc1)c1ccc(F)cc1 (centres unmarked) [H1262, 1-(1-(4-fluorophenyl)ethyl)-3-(4-((isoindolin-5-ylmethyl)sulfonyl)phenyl)urea] |  |  |  | 1.13% |  | 11.2 µL/min/mg | 18.2 µL/min/mg | > 30 µM | 0.05 | 7.5 nM | 10.6 nM | 110.8 L/h/kg | 307 L/kg | 1.69 L/kg | 21.8 mL/min/kg | 53.4 min | 115 min | 0.099 | 
CC(c1ccccc1)N(C)C(=O)Nc1ccc(S(=O)(=O)Cc2ccc3c(c2)CN(C)C3)cc1 (centres unmarked) [H1381, 1-methyl-3-(4-(((2-methylisoindolin-5-yl)methyl)sulfonyl)phenyl)-1-(1-phenylethyl)urea] |  |  |  | 20.64% |  | 68.1 µL/min/mg | 60 µL/min/mg |  | 0.0854 | 22.1 nM and 33.1 nM | 480 nM and 257 nM | 17.7 L/h/kg | 42.87 L/kg | 3.1 L/kg | 63.8 mL/min/kg |  | 101 min | 0.0906 | Metabolic Stability Study D = dog [12]: 88.7 µL/min/mg
COc1cc(S(=O)(=O)Cc2ccc3c(c2)CN(C)C3)ccc1NC(=O)NC(C)c1ccccc1 (centres unmarked) [H1388, 1-(2-methoxy-4-(((2-methylisoindolin-5-yl)methyl)sulfonyl)phenyl)-3-(1-phenylethyl)urea] |  |  |  | 11.3% |  | 42.4 µL/min/mg | 58.1 µL/min/mg | > 30 µM | 0.079 | 4.6 nM | 10.2 nM | 40.5 L/h/kg | 86.8 L/kg | 6.3 L/kg | 77.7 mL/min/kg | 55.8 min | 89.4 min | 0.031 | 
COc1ccc([C@@H](C)NC(=O)Nc2ccc(S(=O)(=O)Cc3ccc4c(c3)CCN(C)C4)cc2)c(Cl)c1Cl [H1417, (R)-1-(1-(2,3-dichloro-4-methoxyphenyl)ethyl)-3-(4-(((2-methyl-1,2,3,4-tetrahydroisoquinolin-6-yl)methyl)sulfonyl)phenyl)urea] |  |  |  | 11.80% |  | 53.4 µL/min/mg | 48.9 µL/min/mg | > 30 µM | 0.0012 | 9.73 nM | 45 nM | 13.61 L/h/kg | 24.97 L/kg | 4.74 L/kg | 26.2 mL/min/kg | 125 min | 76.2 min | 0.0015 | 
COc1cc(S(=O)(=O)Cc2ccc3c(c2)CNC3)ccc1NC(=O)NC(C)c1cccc(Cl)c1Cl.Cl (centres unmarked) [H1421, 1-(1-(2,3-dichlorophenyl)ethyl)-3-(4-((isoindolin-5-ylmethyl)sulfonyl)-2-methoxyphenyl)urea] |  |  |  |  |  | 38.8 µL/min/mg | 13.2 µL/min/mg | > 50 µM | 0.0034 | 0.4 nM | 1.8 nM |  |  |  |  |  |  | 0.0037 | half-life ([13]; plasma, ip, read-out: PK t1/2 i.p. (R)): 1140 min; PK CL i.p. (R) [13]: 1.96 L/h/kg; PK Vd i.p. (R) [13]: 54.56 L/kg
